Laboratory results as given in ChEMBL document CHEMBL1155271, “Synthesis, crystal structures and antibacterial activity studies of aza-derivatives of phytoalexin from cotton plant--gossypol” (2009).
Values after ≈ are worked out from the molar mass of the structure shown. Active and inactive are the calls of the source. No cut-off for these calls is given here.

What was measured:
Format in all cases: functional
Staphylococcus aureus [1] = experiment: Antimicrobial activity against Methicillin susceptible Staphylococcus aureus 213/7 by twofold dilution technique
Staphylococcus aureus [2] = experiment: Antimicrobial activity against Methicillin susceptible Staphylococcus aureus 237/7 by twofold dilution technique
Staphylococcus aureus [3] = experiment: Antimicrobial activity against Methicillin susceptible Staphylococcus aureus 238/7 by twofold dilution technique
Staphylococcus aureus [4] = experiment: Antimicrobial activity against Methicillin susceptible Staphylococcus aureus 239/7 by twofold dilution technique
Staphylococcus aureus [5] = experiment: Antimicrobial activity against Methicillin susceptible Staphylococcus aureus 242/7 by twofold dilution technique
Staphylococcus aureus [6] = experiment: Antimicrobial activity against Methicillin susceptible Staphylococcus aureus 243/7 by twofold dilution technique
Staphylococcus aureus [7] = experiment: Antimicrobial activity against methicillin-resistant Staphylococcus aureus 140/6 by twofold dilution technique
Staphylococcus aureus [8] = experiment: Antimicrobial activity against methicillin-resistant Staphylococcus aureus 141/6 by twofold dilution technique
Staphylococcus aureus [9] = experiment: Antimicrobial activity against methicillin-resistant Staphylococcus aureus 143/6 by twofold dilution technique
Staphylococcus aureus [10] = experiment: Antimicrobial activity against methicillin-resistant Staphylococcus aureus 144/6 by twofold dilution technique
Staphylococcus aureus [11] = experiment: Antimicrobial activity against methicillin-resistant Staphylococcus aureus 146/6 by twofold dilution technique
Staphylococcus aureus [12] = experiment: Antimicrobial activity against methicillin-resistant Staphylococcus aureus 200/7 by twofold dilution technique
Staphylococcus aureus [13] = experiment: Antimicrobial activity against methicillin-resistant Staphylococcus aureus 217/7 by twofold dilution technique
Staphylococcus aureus [14] = experiment: Antimicrobial activity against methicillin-resistant Staphylococcus aureus 218/7 by twofold dilution technique
Staphylococcus aureus [15] = experiment: Antimicrobial activity against methicillin-resistant Staphylococcus aureus 236/7 by twofold dilution technique
Staphylococcus aureus [16] = experiment: Antimicrobial activity against Staphylococcus aureus NCTC 4163 at 400 ug after 18 hrs by disk diffusion method; conditions: NCTC 4163, 18 h, read-out: DIZ
[17] = test system: Staphylococcus epidermidis; experiment: Antimicrobial activity against Staphylococcus epidermidis ATCC 12228 at 400 ug after 18 hrs by disk diffusion method; conditions: ATCC 12228, 18 h, read-out: DIZ
Bacillus subtilis [18] = experiment: Antimicrobial activity against Bacillus subtilis ATCC 6633 at 400 ug after 18 hrs by disk diffusion method; conditions: ATCC 6633, 18 h, read-out: DIZ
Bacillus cereus [19] = experiment: Antimicrobial activity against Bacillus cereus ATCC 11778 at 400 ug after 18 hrs by disk diffusion method; conditions: ATCC 11778, 18 h, read-out: DIZ
Enterococcus hirae [20] = experiment: Antimicrobial activity against Enterococcus hirae ATCC 10541 at 400 ug after 18 hrs by disk diffusion method
Micrococcus luteus [21] = experiment: Antimicrobial activity against Micrococcus luteus ATCC 9341 at 400 ug after 18 hrs by disk diffusion method
Micrococcus luteus [22] = experiment: Antimicrobial activity against Micrococcus luteus ATCC 10240 at 400 ug after 18 hrs by disk diffusion method; conditions: ATCC 10240, 18 h, read-out: DIZ
Staphylococcus aureus [23] = experiment: Antimicrobial activity against Staphylococcus aureus ATCC 25923 at 400 ug after 18 hrs by disk diffusion method; conditions: ATCC 25923, 18 h, read-out: DIZ
Staphylococcus aureus [24] = experiment: Antimicrobial activity against Staphylococcus aureus ATCC 6538 at 400 ug after 18 hrs by disk diffusion method; conditions: ATCC 6538, 18 h, read-out: DIZ
Staphylococcus aureus [25] = experiment: Antimicrobial activity against Staphylococcus aureus ATCC 29213 at 400 ug after 18 hrs by disk diffusion method; conditions: ATCC 29213, 18 h, read-out: DIZ
Staphylococcus aureus [26] = experiment: Antimicrobial activity against Staphylococcus aureus NCTC 4163 after 18 hrs by twofold dilution technique; conditions: NCTC 4163, 18 h
Staphylococcus aureus [27] = experiment: Antimicrobial activity against Staphylococcus aureus ATCC 25923 after 18 hrs by twofold dilution technique; conditions: ATCC 25923, 18 h
Staphylococcus aureus [28] = experiment: Antimicrobial activity against Staphylococcus aureus ATCC 6538 after 18 hrs by twofold dilution technique; conditions: ATCC 6538, 18 h
Staphylococcus aureus [29] = experiment: Antimicrobial activity against Staphylococcus aureus ATCC 29213 after 18 hrs by twofold dilution technique; conditions: ATCC 29213, 18 h
[30] = test system: Staphylococcus epidermidis; experiment: Antimicrobial activity against Staphylococcus epidermidis ATCC 12228 by twofold dilution technique
Bacillus subtilis [31] = experiment: Antimicrobial activity against Bacillus subtilis ATCC 6633 after 18 hrs by twofold dilution technique; conditions: ATCC 6633, 18 h
Bacillus cereus [32] = experiment: Antimicrobial activity against Bacillus cereus ATCC 11778 after 18 hrs by twofold dilution technique; conditions: ATCC 11778, 18 h
Enterococcus hirae [33] = experiment: Antimicrobial activity against Enterococcus hirae ATCC 10541 after 18 hrs by twofold dilution technique; conditions: ATCC 10541, 18 h
Micrococcus luteus [34] = experiment: Antimicrobial activity against Micrococcus luteus ATCC 9341 after 18 hrs by twofold dilution technique; conditions: ATCC 9341, 18 h
Micrococcus luteus [35] = experiment: Antimicrobial activity against Micrococcus luteus ATCC 10240 by twofold dilution technique
Staphylococcus aureus [36] = experiment: Antimicrobial activity against methicillin-resistant Staphylococcus aureus 136/6 by twofold dilution technique
Staphylococcus aureus [37] = experiment: Antimicrobial activity against Methicillin susceptible Staphylococcus aureus 206/7 by twofold dilution technique
Staphylococcus aureus [38] = experiment: Antimicrobial activity against Methicillin susceptible Staphylococcus aureus 207/7 by twofold dilution technique
Staphylococcus aureus [39] = experiment: Antimicrobial activity against Methicillin susceptible Staphylococcus aureus 208/7 by twofold dilution technique
Staphylococcus aureus [40] = experiment: Antimicrobial activity against Methicillin susceptible Staphylococcus aureus 212/7 by twofold dilution technique

SMILES | MIC (Staphylococcus aureus [1]) [µg/mL] | MIC (Staphylococcus aureus [2]) [µg/mL] | MIC (Staphylococcus aureus [3]) [µg/mL] | MIC (Staphylococcus aureus [4]) [µg/mL] | MIC (Staphylococcus aureus [5]) [µg/mL] | MIC (Staphylococcus aureus [6]) [µg/mL] | MIC (Staphylococcus aureus [7]) [µg/mL] | MIC (Staphylococcus aureus [8]) [µg/mL] | MIC (Staphylococcus aureus [9]) [µg/mL] | MIC (Staphylococcus aureus [10]) [µg/mL] | MIC (Staphylococcus aureus [11]) [µg/mL] | MIC (Staphylococcus aureus [12]) [µg/mL] | MIC (Staphylococcus aureus [13]) [µg/mL] | MIC (Staphylococcus aureus [14]) [µg/mL] | MIC (Staphylococcus aureus [15]) [µg/mL] | zone of inhibition at 400 µg/disc [17] [mm] | zone of inhibition at 400 µg/disc (Bacillus subtilis [18]) [mm] | zone of inhibition at 400 µg/disc (Bacillus cereus [19]) [mm] | diameter of the inhibition zone (DIZ) (Enterococcus hirae [20]) | zone of inhibition at 400 µg/disc (Micrococcus luteus [22]) [mm] | also measured
Cc1cc2c(c(O)c1-c1c(C)cc3c(c1O)/C(=C/N)C(=O)C(O)=C3C(C)C)/C(=C/N)C(=O)C(O)=C2C(C)C | 100 (≈ 194 µM) | 100 (≈ 194 µM) | 100 (≈ 194 µM) | 100 (≈ 194 µM) | 50 (≈ 96.8 µM) | 100 (≈ 194 µM) | 100 (≈ 194 µM) | 100 (≈ 194 µM) | 100 (≈ 194 µM) | 100 (≈ 194 µM) | 100 (≈ 194 µM) | 100 (≈ 194 µM) | 200 (≈ 387 µM) | 100 (≈ 194 µM) | 100 (≈ 194 µM) | 12 | 11 | 11 | inactive | 14 | zone of inhibition at 400 µg/disc (Staphylococcus aureus [16]): 15 mm; zone of inhibition at 400 µg/disc (Micrococcus luteus [21]; ATCC 9341, 18 h, read-out: DIZ): 11 mm; zone of inhibition at 400 µg/disc (Staphylococcus aureus [23]): 13 mm; zone of inhibition at 400 µg/disc (Staphylococcus aureus [24]): 14 mm; zone of inhibition at 400 µg/disc (Staphylococcus aureus [25]): 13 mm; MIC (Staphylococcus aureus [26]): 100 µg/mL (≈ 194 µM); MIC (Staphylococcus aureus [27]): 100 µg/mL (≈ 194 µM); MIC (Staphylococcus aureus [28]): 50 µg/mL (≈ 96.8 µM); MIC (Staphylococcus aureus [29]): 50 µg/mL (≈ 96.8 µM); MIC [30]: > 400 µg/mL; MIC (Bacillus subtilis [31]): 100 µg/mL (≈ 194 µM); MIC (Bacillus cereus [32]): 50 µg/mL (≈ 96.8 µM); MIC (Enterococcus hirae [33]): 100 µg/mL (≈ 194 µM); MIC (Micrococcus luteus [34]): 100 µg/mL (≈ 194 µM); MIC (Micrococcus luteus [35]): 100 µg/mL (≈ 194 µM); MIC (Staphylococcus aureus [36]): 100 µg/mL (≈ 194 µM); MIC (Staphylococcus aureus [37]): 100 µg/mL (≈ 194 µM); MIC (Staphylococcus aureus [38]): 200 µg/mL (≈ 387 µM); MIC (Staphylococcus aureus [39]): 100 µg/mL (≈ 194 µM); MIC (Staphylococcus aureus [40]): 200 µg/mL (≈ 387 µM)
Cc1cc2c(c(O)c1-c1c(C)cc3c(c1O)/C(=C/NCC1COCCOCCOCCOCCOCCO1)C(=O)C(O)=C3C(C)C)/C(=C/NCC1COCCOCCOCCOCCOCCO1)C(=O)C(O)=C2C(C)C (centres undefined) | 100 (≈ 93.5 µM) | 100 (≈ 93.5 µM) | 100 (≈ 93.5 µM) | 100 (≈ 93.5 µM) | 100 (≈ 93.5 µM) | 200 (≈ 187 µM) | 100 (≈ 93.5 µM) | 100 (≈ 93.5 µM) | 100 (≈ 93.5 µM) | 100 (≈ 93.5 µM) | 100 (≈ 93.5 µM) | 200 (≈ 187 µM) | 200 (≈ 187 µM) | 100 (≈ 93.5 µM) | 100 (≈ 93.5 µM) | 12 | 11 | 11 | inactive | 14 | diameter of the inhibition zone (DIZ) (Micrococcus luteus [21]): inactive; zone of inhibition at 400 µg/disc (Staphylococcus aureus [23]): 11 mm; zone of inhibition at 400 µg/disc (Staphylococcus aureus [24]): 11 mm; zone of inhibition at 400 µg/disc (Staphylococcus aureus [25]): 11 mm; MIC (Staphylococcus aureus [26]): 100 µg/mL (≈ 93.5 µM); MIC (Staphylococcus aureus [27]): 100 µg/mL (≈ 93.5 µM); MIC (Staphylococcus aureus [28]): 100 µg/mL (≈ 93.5 µM); MIC (Staphylococcus aureus [29]): 100 µg/mL (≈ 93.5 µM); MIC [30]: > 400 µg/mL; MIC (Bacillus subtilis [31]): 200 µg/mL (≈ 187 µM); MIC (Bacillus cereus [32]): 100 µg/mL (≈ 93.5 µM); MIC (Enterococcus hirae [33]): 100 µg/mL (≈ 93.5 µM); MIC (Micrococcus luteus [34]): 100 µg/mL (≈ 93.5 µM); MIC (Micrococcus luteus [35]): 100 µg/mL (≈ 93.5 µM); MIC (Staphylococcus aureus [36]): 100 µg/mL (≈ 93.5 µM); MIC (Staphylococcus aureus [37]): 100 µg/mL (≈ 93.5 µM); MIC (Staphylococcus aureus [38]): 200 µg/mL (≈ 187 µM); MIC (Staphylococcus aureus [39]): 200 µg/mL (≈ 187 µM); MIC (Staphylococcus aureus [40]): 100 µg/mL (≈ 93.5 µM)
